From US20250339569A1, “CARBONIC ANHYDRASE IX LIGANDS” (priority 2021, published 2025)
Where two headings read alike, the source gives them in different places.

Assays:
[1] = molecular target: T1, CAIX-expressing human HT-29 colorectal cancer cells (Homo sapiens, UniProt Q16790); test: FACS binding assay (IC50 determination, competition with tracer 3BP-2776 or 3BP-4149)
T1 construct: CAIX-expressing human HT-29 colorectal cancer cells; host or cells: HT-29 human colorectal cancer cells
Method in brief: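 HT-29 cells in FACS buffer (PBS, 1% FCS) at 500.000 cells/ml were exposed to compounds competing with a labelled tracer, with biotinylated compounds detected by 1 μg/mL APC-streptavidin for 30 min on ice. APC/Cy5 median fluorescence was read by flow cytometry and IC50 derived by 4PL fit.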

[2] = molecular target: T2, human carbonic anhydrase IX (hCAIX-Fc) (Homo sapiens, UniProt Q16790); test: Surface plasmon resonance assay with hCAIX-Fc; assay type: binding; conditions: for t1/2 category (activity): SPR dissociation half-life, hCAIX-Fc; for t1/2 category (activity) / Kd: 25° C.; for pKD category (affinity) CAIX / Kd: SPR; for pKD category (affinity) CAIX: hCAIX; for Kd: hCAIX-Fc captured, read-out: pKD category (activity) (converted)
T2 construct: purchased SinoBliological (Sino Biological) 10107-H02H

CAIV (hCAIV-bio) = molecular target: T3, CAIV (hCAIV-bio) (Homo sapiens, UniProt P22748); test: SPR selectivity assay with biotinylated CAIV; assay type: binding
T3 construct: purchased SinoBliological (Sino Biological) 10472-1H081H
Description: (§1) In order to test selectivity of CAIX-binding peptides toward CAIV (SinoBliological, Cat #10472-1H081H), CAXII (SinoBliological, Cat #10617-H08H or CAXIV (SinoBliological, Cat #10458-H08H), SPR assays were performed analog to the assay described above but with a different target capture procedure. For immobilization, the carbonic anhydrases were biotinylated and capture on the SPR chip using the Biotin CAPture Kit (cytiva) according to the manufacturer instructions using HBSTE, 0.1% as Running Buffer.
(§2) Table 13 describes the protocol steps for biotinylated target capturing and assessment of the binding kinetics.

CAXII (hCAXII-bio) = molecular target: T4, CAXII (hCAXII-bio) (Homo sapiens, UniProt O43570); test: SPR selectivity assay with biotinylated CAXII; assay type: binding
T4 construct: purchased SinoBliological (Sino Biological) 10617-H08H
Description: as §1, §2

CAXIV (hCAXIV-bio) = molecular target: T5, CAXIV (hCAXIV-bio) (Homo sapiens, UniProt Q9ULX7); test: SPR selectivity assay with biotinylated CAXIV; assay type: binding
T5 construct: purchased SinoBliological (Sino Biological) 10458-H08H
Description: as §1, §2

dog CAIX = test: Radioligand binding assay, 111In-labeled compounds, CHO-VGT cells with dog CAIX; conditions: 111In-labeled compound, 8 h at 37°C
Description: (§3) In order to assess the affinity of ^111In-labeled compounds to CAIX of different species, a radioligand binding assay was established.
(§4) CHO-VGT cells were transfected with the human, dog, and mouse CAIX (InSCREENex GmbH) and cultured in Ham's F-12 medium (Sigma-Aldrich #N4888) supplemented with 10% fetal bovine serum (FCS), 2 mM L-glutamine, 100 U/mL Penicillin, and 0.1 mg/mL streptomycin. Cells were detached with Accutase (Biolegend #423201) and counted using a particle counter (CASY Model TT; Scharfe Systems, Germany). Cell concentrations were adjusted to 3×10^5 mL^−1, and 1.000 μL of the suspension per well were dispensed into flat-clear-bottom 24 well plates.
(§5) Approximately 24 hours after re-seeding, the medium was aspirated and the cells were washed once with 1000 μL assay medium (Ham's medium without additives). To determine total binding, 700 μL of assay medium and 100 μL of the radioligand dilutions were added to the wells in triplicates. To determine non-specific binding, 600 μL of binding medium, 100 μL of the radioligand dilutions and 100 μL of a blocking solution containing 8 μM non-labeled compound were added to the wells in triplicates. At the end of incubation time (8 h at 37° C.), cells were washed and subsequently harvested in 300 μL RIPA buffer (Thermo Scientific #89901) containing Protease Inhibitor Cocktail Set I (Calbiochem #539131). Radioactivity of the cell lysate of each well was counted using a gamma counter (1470 Wizard, PerkinElmer, USA). An aliquot of each radioligand dilution was included in the gamma counter measurements to allow for determination of their actual concentrations via their known specific activity.

mouse CAIX = molecular target: T6, mouse CAIX (Mus musculus, UniProt Q8VHB5); test: Radioligand binding assay, 111In-labeled compounds, CHO-VGT cells with mouse CAIX
T6 construct: host or cells: CHO-VGT / CHO cells
Description: as §3, §4, §5

human CAIX = human CAIX (Homo sapiens, UniProt Q16790); test: Radioligand binding assay, 111In-labeled compounds, CHO-VGT cells with human CAIX; parameters: host or cells: CHO-VGT / CHO cells
Description: as §3, §4, §5

T5 sequence (Q9ULX7 16-337): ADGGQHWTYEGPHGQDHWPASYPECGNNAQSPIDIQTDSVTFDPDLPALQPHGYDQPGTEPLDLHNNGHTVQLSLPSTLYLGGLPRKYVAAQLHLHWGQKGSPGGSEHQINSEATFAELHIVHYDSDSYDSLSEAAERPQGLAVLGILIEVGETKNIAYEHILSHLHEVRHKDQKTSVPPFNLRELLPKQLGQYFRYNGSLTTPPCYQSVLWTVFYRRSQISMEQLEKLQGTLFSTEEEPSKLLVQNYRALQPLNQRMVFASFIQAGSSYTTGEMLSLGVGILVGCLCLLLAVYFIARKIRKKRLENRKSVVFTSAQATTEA
T3 sequence (P22748 19-284): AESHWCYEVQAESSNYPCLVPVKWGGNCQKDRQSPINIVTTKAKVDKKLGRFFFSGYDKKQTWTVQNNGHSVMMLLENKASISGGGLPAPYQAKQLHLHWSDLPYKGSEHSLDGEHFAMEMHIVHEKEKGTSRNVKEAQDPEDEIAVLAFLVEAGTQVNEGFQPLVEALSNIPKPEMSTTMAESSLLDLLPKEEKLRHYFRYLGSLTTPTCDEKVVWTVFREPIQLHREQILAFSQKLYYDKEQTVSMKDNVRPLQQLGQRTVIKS
T4 sequence (O43570 25-354): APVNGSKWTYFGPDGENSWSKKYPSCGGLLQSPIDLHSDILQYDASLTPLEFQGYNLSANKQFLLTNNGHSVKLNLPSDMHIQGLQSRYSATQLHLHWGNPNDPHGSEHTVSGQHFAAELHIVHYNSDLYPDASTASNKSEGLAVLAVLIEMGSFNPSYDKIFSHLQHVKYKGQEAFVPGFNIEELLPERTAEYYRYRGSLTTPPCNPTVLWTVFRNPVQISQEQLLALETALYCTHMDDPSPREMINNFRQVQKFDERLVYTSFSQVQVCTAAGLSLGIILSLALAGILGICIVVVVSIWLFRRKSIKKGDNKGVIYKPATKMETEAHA
T6 sequence (Q8VHB5 32-437): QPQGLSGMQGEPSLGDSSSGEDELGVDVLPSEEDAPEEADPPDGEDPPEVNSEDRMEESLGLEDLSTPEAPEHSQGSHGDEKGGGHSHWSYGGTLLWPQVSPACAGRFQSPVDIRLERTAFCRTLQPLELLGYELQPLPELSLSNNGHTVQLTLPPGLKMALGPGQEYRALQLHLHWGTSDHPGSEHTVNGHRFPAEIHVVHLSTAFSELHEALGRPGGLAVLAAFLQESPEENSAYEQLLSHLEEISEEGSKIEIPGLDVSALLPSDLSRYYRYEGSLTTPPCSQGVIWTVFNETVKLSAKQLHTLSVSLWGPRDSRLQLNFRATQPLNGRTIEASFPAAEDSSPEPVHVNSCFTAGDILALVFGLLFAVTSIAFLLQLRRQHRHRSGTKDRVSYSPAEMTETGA

| Compound | IC50 [1] [nM] | t1/2 category (activity) [2] | pKD category (affinity) CAIX [2] | Kd [2] [nM] | Kd (CAIV (hCAIV-bio)) [nM] | Kd (CAXII (hCAXII-bio)) [nM] | Kd (CAXIV (hCAXIV-bio)) [nM] | pKD category (activity) (dog CAIX) | Kd (mouse CAIX) [nM] | Kd (human CAIX) [nM] | IC50 ([1]; FACS binding assay, HT-29 cells, competition with tracer 3BP-2776 (10 nM, biotin-labeled), 4° C., 1 hour, read-out: pIC50 category (activity) (converted)) [nM] | Kd (CAIV (hCAIV-bio); SPR, biotinylated CAIV, read-out: pKD category (affinity) CAIV (converted)) [nM] | Kd (CAXII (hCAXII-bio); SPR, biotinylated CAXII, read-out: pKD category (affinity) CAXII (converted)) [nM] | Kd (CAXIV (hCAXIV-bio); SPR, biotinylated CAXIV, read-out: pKD category (affinity) CAXIV (converted)) [nM] | Kd (mouse CAIX; 111In-labeled compound, Mouse CAIX, 8 h at 37°C, read-out: pKD category (activity) (converted)) [nM] | Kd (human CAIX; 111In-labeled compound, Human CAIX, 8 h at 37°C, read-out: pKD category (activity) (converted)) [nM] |
| --- | --- | --- | --- | --- | --- | --- | --- | --- | --- | --- | --- | --- | --- | --- | --- | --- |
| CC(C)C[C@@H]1NC(=O)[C@H](Cc2cccc(NC(=O)CCCS(N)(=O)=O)c2)NC(=O)[C@H](CC(=O)O)NC(=O)[C@H]2CCCN2C(=O)[C@H](CCC(=O)O)NC(=O)[C@@H](NC(=O)[C@H](CCC(N)=O)NC(=O)CN2CCN(C(=O)CN3CCN(CC(=O)O)CCN(CC(=O)O)CCN(CC(=O)O)CC3)CC2)CSCc2cccc(c2)CSC[C@@H](C(N)=O)NC(=O)[C@H](CO)NC(=O)[C@H](Cc2c[nH]c3ccccc23)NC(=O)[C@H]([C@@H](C)O)NC1=O [3BP-4452, DOTA-PPAc-Gln-[Cys(3MeBn)-Glu-pro-Asp-Af3(Cpsu)-Leu-Thr-Trp-Ser-Cys]-NH2] | < 10 | A (t1/2>15.0 minutes) | A (pKD values >8.0) | < 10 | > 1000 | > 1000 | > 1000 | A (pKD values >8.0) | 10 to 79.4 | < 10 | – | – | – | – | – | – |
| CC(C)C[C@@H]1NC(=O)[C@H](Cc2ccc(NC(=O)CCS(N)(=O)=O)cc2)NC(=O)[C@H](CC(=O)O)NC(=O)[C@H]2CCCN2C(=O)[C@H](CCC(=O)O)NC(=O)[C@@H](NC(=O)[C@H](CCC(N)=O)NC(=O)CN2CCN(CC(=O)O)CCN(CC(=O)O)CCN(CC(=O)O)CC2)CSCc2cccc(c2)CSC[C@@H](C(N)=O)NC(=O)[C@H](CO)NC(=O)[C@H](Cc2c[nH]c3ccccc23)NC(=O)[C@H]([C@@H](C)O)NC1=O [3BP-4501, DOTA-Gln-[Cys(3MeBn)-Glu-pro-Asp-Aph(SaPr)-Leu-Thr-Trp-Ser-Cys]-NH2] | – | A (t1/2>15.0 minutes) | A (pKD values >8.0) | < 10 | – | – | – | A (pKD values >8.0) | – | – | < 10 | > 1000 | > 1000 | > 1000 | 10 to 79.4 | < 10 |
